One compound from patent US20220411439A1, “POLYMORPHS OF A MACROCYCLIC KINASE INHIBITOR” (TURNING POINT THERAPEUTICS, INC., priority 2019, published 2022) can be followed below.

Where two headings read alike, the source gives them in different places.

One may read the IC75 as the concentration needed for an effect of 75%. The IC90 is the concentration at which the effect reaches the 90% level. A higher IC90 goes with weaker potency.

The assay deals with T1, Ba/F3 KIF5B-RET (Homo sapiens, UniProt P07949, cells depend on it, form not given).
T1 construct: IC50 (nM); other: Experiment 1; other: Experiment 2; fused on or other part: P33176 (Kinesin-1 heavy chain)
Briefly: Compound I anti-cell proliferation comparison (FIG. 5A, 5B). It is filed as cell-based. As to conditions: for GI50: read-out: IC50 (the source's name). An excerpt: The KIF5B-RET gene was synthesized at GenScript and cloned into pCDH-CMV-MCS-EF1-Puro plasmid (System Biosciences, Inc). KIF5B-RET point mutation V804M and G810C were generated at GenScript by PCR and confirmed by sequencing. Ba/F3-KIF5B-RET wild type and mutant were generated by transducing Ba/F3 cells with lentivirus containing KIF5B-RET wide type or mutant. Stable cell lines were selected by puromycin treatment, followed by IL-3 withdrawal. Briefly, 5×10^6 Ba/F3 cells were transduced with lentivirus supernatant in the presence of 8 μg/mL protamine sulfate. The transduced cells were subsequently selected with 1 μg/mL puromycin in the presence of IL3-containing medium RPMI1640, plus 10% FBS. After 10-12 days of selection, the surviving cells were further selected for […] independent growth.
Two thousand cells per well were seeded in 384 well white plate for 24 hrs, and then treated with compounds for 72 hours (37° C., 5% CO2). Cell proliferation was measured using CellTiter-Glo luciferase-based ATP detection assay (Promega) following the manufactures's protocol. IC50 determinations were performed using GraphPad Prism software (GraphPad, Inc., San Diego, Calif.).

T1 sequence (P07949 whole entry G810C, form open, the tested form may be a part): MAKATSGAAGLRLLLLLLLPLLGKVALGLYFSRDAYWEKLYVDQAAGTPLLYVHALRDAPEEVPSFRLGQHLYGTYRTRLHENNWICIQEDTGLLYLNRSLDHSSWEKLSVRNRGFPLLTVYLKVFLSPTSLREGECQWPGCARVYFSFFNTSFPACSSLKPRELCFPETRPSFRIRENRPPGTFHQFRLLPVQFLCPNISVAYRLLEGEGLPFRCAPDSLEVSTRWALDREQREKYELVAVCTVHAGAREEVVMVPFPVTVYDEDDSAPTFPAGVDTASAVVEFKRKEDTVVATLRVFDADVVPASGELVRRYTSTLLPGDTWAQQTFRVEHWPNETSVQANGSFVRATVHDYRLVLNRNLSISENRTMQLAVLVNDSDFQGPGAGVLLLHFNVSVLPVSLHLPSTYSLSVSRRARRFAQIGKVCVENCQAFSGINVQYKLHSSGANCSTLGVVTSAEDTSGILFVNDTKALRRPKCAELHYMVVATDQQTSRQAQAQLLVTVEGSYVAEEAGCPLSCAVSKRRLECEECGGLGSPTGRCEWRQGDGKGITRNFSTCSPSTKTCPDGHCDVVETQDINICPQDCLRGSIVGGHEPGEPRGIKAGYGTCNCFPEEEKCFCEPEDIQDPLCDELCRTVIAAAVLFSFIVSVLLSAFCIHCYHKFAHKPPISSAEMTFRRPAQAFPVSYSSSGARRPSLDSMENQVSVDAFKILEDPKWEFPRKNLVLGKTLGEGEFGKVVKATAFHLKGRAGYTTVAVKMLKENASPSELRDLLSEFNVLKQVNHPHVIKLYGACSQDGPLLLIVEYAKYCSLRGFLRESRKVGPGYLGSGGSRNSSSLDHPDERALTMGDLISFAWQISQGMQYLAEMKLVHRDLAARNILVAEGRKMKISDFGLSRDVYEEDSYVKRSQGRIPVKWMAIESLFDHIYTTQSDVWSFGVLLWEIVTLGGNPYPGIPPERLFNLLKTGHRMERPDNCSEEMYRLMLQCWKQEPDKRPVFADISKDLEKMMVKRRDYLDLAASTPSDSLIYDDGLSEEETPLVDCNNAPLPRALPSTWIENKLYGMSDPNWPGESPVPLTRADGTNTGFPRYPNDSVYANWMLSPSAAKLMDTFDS

Consider `COc1ccc(CN2C3CC2CN(c2ccc(-c4cc(OCC(C)(C)O)cn5ncc(C#N)c45)cn2)C3)cn1` [LOXO-292], for which, for the setting “Experiment 1”, the “IC75” value is listed as 1021 nM, the IC90 turned out to be 3450 nM and the GI50 was determined as 301 nM. Under “Experiment 2”, the 75% effect concentration (IC75) was found to be 791.4 nM, the 90% effect level (IC90) was put at 2370 nM and the GI50 was determined as 364 nM.
